Measured values published in ChEMBL document CHEMBL3044820, “Evaluation of Benzenesulfonanilide Derivatives for the Control of Crucifers Clubroot” (1996).

Key:
Format in all cases: functional
Plasmodiophora brassicae [1] = assay: Fungicidal activity against clubroot disease causing Plasmodiophora brassicae infested Brassica campestris under greenhouse condition assessed as disease incidence at 4 kg a.i/ha treated to soil measured after 40 to 50 days
Plasmodiophora brassicae [2] = assay: Fungicidal activity against clubroot disease causing Plasmodiophora brassicae infested Brassica campestris under greenhouse condition assessed as disease incidence at 2 kg a.i/ha treated to soil measured after 40 to 50 days
Plasmodiophora brassicae [3] = assay: Fungicidal activity against clubroot disease causing Plasmodiophora brassicae infested Brassica campestris under greenhouse condition assessed as disease incidence at 0.5 kg a.i/ha treated to soil measured after 40 to 50 days

In the case of `Cc1ccc(S(=O)(=O)Nc2ccc(C(F)(F)F)cc2)cc1`, the Activity (Plasmodiophora brassicae [1]) is reported as 26%, the Activity (Plasmodiophora brassicae [2]) is reported as 26% and the Activity (Plasmodiophora brassicae [3]) is reported as 0%.
Work on `Cc1cc([N+](=O)[O-])ccc1NS(=O)(=O)c1cc(C(F)(F)F)ccc1Cl` yielded an Activity (Plasmodiophora brassicae [1]) of over 91%, an Activity (Plasmodiophora brassicae [2]) of over 91% and an Activity (Plasmodiophora brassicae [3]) of 0%.
With `Cc1cc([N+](=O)[O-])ccc1NS(=O)(=O)c1cccc(C(F)(F)F)c1` the Activity (Plasmodiophora brassicae [1]) was over 91%, the Activity (Plasmodiophora brassicae [2]) was over 91% and the Activity (Plasmodiophora brassicae [3]) was 0%.
Compound `O=[N+]([O-])c1ccc(NS(=O)(=O)c2ccc(Cl)c(C(F)(F)F)c2)c(Cl)c1` [FLUSULFAMIDE] has an Activity (Plasmodiophora brassicae [1]) of over 91%, an Activity (Plasmodiophora brassicae [2]) of over 91% and an Activity (Plasmodiophora brassicae [3]) of over 91%.
